Results reported in PubChem BioAssay AID1996.
Converted amounts (≈) assume the structure as drawn. “And” between values parts separate entries of the source, which are not always exact repeats. Identical values can stand only once.

conditions: buffer; pH 7.4; 200.0 µM

Compound	solubility kinetic
CCN(CC)c1ccc(NC(=O)CSC(=O)c2ccccc2)cc1.O=S(=O)(O)O	4.1 µg/mL
O=C(CN1C(=O)CNC1=O)Nc1ccc(Cl)cc1	> 40.2 µg/mL
CCCCN(C)C(=O)c1cc2c(s1)-c1ccccc1S(=O)(=O)C2	> 52.4 µg/mL
NC(=O)C1CCN(C(=O)Cc2ccsc2)CC1	> 37.8 µg/mL
COc1ccc(S(=O)(=O)NCC2CCCO2)cc1C(=O)O (configuration not stated)	> 47.3 µg/mL
COc1cc2c(cc1OC)C(C)N(S(=O)(=O)c1cn(C)c(C)n1)CC2 (configuration not stated)	> 54.8 µg/mL
NC(=O)COC(=O)CCSc1ccc(Cl)cc1	30.2 µg/mL (≈ 110 µM)
CCc1cc(C(=O)Nc2ccccc2N2CCOCC2)sc1C	2.2 µg/mL (≈ 6.66 µM)
CSc1cc(-c2ccncc2)nc(-c2ccc(Cl)cc2)c1	< 0.3 µg/mL
Cc1ccc(OCC(=O)O/N=C(\N)c2ccncc2)cc1C	18.6 µg/mL (≈ 62.1 µM)
CCn1c(OC)nc2c1c(=O)n(C)c(=O)n2C	> 35.7 µg/mL
O=C(NC1CCCCCCC1)c1cccnc1	32.5 µg/mL (≈ 140 µM)
CCN(c1cccc(C)c1)C1C(=O)c2ccccc2N1C(C)=O (configuration not stated)	> 46.3 µg/mL
Cc1cc(S(=O)(=O)NCCCn2ccnc2)c(C)cc1Cl	> 49.2 µg/mL
Cc1cc(C)cc(N(CC(=O)N2CCCC2)S(C)(=O)=O)c1	> 46.6 µg/mL
O=C1c2ccccc2CN1CCNC(=S)NC1CCCCC1	> 47.6 µg/mL
CCC(=O)c1c[nH]c(C(=O)NCc2cccnc2)c1	> 38.6 µg/mL
Nc1ncc(S(=O)(=O)c2ccc(Cl)cc2)c(N)n1	31.4 µg/mL (≈ 110 µM)
CN(C(=O)C1CCN(S(=O)(=O)c2ccccc2[N+](=O)[O-])CC1)C1CCCCC1	52.9 µg/mL (≈ 129 µM)
CCCC(=O)Nc1ccccc1NC(=O)c1ccc2c(c1)OCO2	> 49 µg/mL
Cc1nc2ccccc2c2ncccc12	22.4 µg/mL (≈ 115 µM)
Cc1ccc(C(=O)Nc2cccc(C(O)c3ccccc3)c2)cc1 (configuration not stated)	2.5 µg/mL (≈ 7.88 µM)
NC(=O)C1CCN(c2ccc(C(F)(F)F)cn2)CC1	> 41 µg/mL
O=C(CSc1ncnc2nc[nH]c12)c1ccc([N+](=O)[O-])cc1	2.6 µg/mL (≈ 8.25 µM)
CNc1nc2c(Cl)cc(Cl)cc2s1	< 0.2 µg/mL

Compound	solubility kinetic
Cc1ccc(NC(=O)COC(=O)c2ccc[n+]([O-])c2)c(Br)c1	> 54.8 µg/mL
COc1ccc(CCNC(=O)CCC(=O)NC2CCCC(C)C2C)cc1OC (configuration not stated)	39.3 µg/mL (≈ 101 µM)
O=C(c1ccccc1)C1CCN(C(=O)Nc2ccccc2)CC1	41.2 µg/mL (≈ 134 µM)
CN(C)S(=O)(=O)c1cc(C(=O)NCc2ccccc2)c(Cl)cc1Cl	47.1 µg/mL (≈ 122 µM)
CC1CCCCN1C(=O)CCS(=O)(=O)Cc1ccccc1 (configuration not stated)	35 µg/mL (≈ 113 µM)
CCCCn1c(=O)c(CCC(=O)O)nc2ccccc21	31.8 µg/mL (≈ 116 µM)
Cc1ccc(N2C(=O)CC(N3CCSCC3)C2=O)c(C)c1 (configuration not stated)	> 45.7 µg/mL
O=C(CSc1ccc(F)cc1)N1CCOCC1	> 38.3 µg/mL
COc1ccc(C(=O)N2CC(c3ccccc3)CC2=O)cc1 (configuration not stated)	3.4 µg/mL (≈ 11.5 µM)
CC(C)(C)S(=O)(=O)c1cnc(-c2ccccn2)nc1N	34.1 µg/mL (≈ 117 µM)
O=C(c1cccs1)N1CCN(S(=O)(=O)c2cccs2)CC1	47.3 µg/mL (≈ 138 µM)
CC(C)(Cc1ccc(O)cc1)NC(=O)SCc1ccccc1	> 47.3 µg/mL
C=CCN1C(=O)C(C)NC1=S (configuration not stated)	> 25.5 µg/mL
CCCNC(=O)CSc1nnc(-c2ccc(F)cc2)o1	> 44.3 µg/mL
Cn1ccs/c1=N\C(=O)Nc1cccc(C(F)(F)F)c1	> 45.2 µg/mL
COc1ccccc1Nc1nc(Cl)c(C=O)s1	12.1 µg/mL (≈ 45 µM)
COc1ccccc1N1CCN(C(=O)CSc2nnc(C)n2C2CC2)CC1	> 58.1 µg/mL
Cc1ccccc1OC(C)C(=O)Nc1ccc2c(c1)OCCO2 (configuration not stated)	40.8 µg/mL (≈ 130 µM)
Cl.OCCN1C2=NCCCN2c2ccccc21	> 38.1 µg/mL
Cc1ccc(CC2CC(=O)N(c3ccc(C)cc3)C2=O)cc1 (configuration not stated)	7.8 µg/mL (≈ 26.6 µM)
CCNC(=O)CC1C(=O)N(c2ccc(OC)cc2)C(=O)N1CCOC (configuration not stated)	> 52.4 µg/mL
Cc1cc(OC(C)C(=O)NCC2CCCO2)cc(C)c1Cl (configuration not stated)	40.7 µg/mL (≈ 131 µM)
O=S(=O)(Nc1ccccc1Br)c1cccs1	> 47.7 µg/mL
CC(C)CC(=O)Nc1ccc(Cc2ccncc2)cc1	> 40.3 µg/mL
O=[N+]([O-])c1ccc(NS(=O)(=O)c2cccc3cccnc23)cc1	1.9 µg/mL (≈ 5.77 µM)

Compound	solubility kinetic
CCOc1ccccc1C(=O)NC(C)CCc1ccccc1 (configuration not stated)	22.2 µg/mL (≈ 74.6 µM)
Cc1ccc(CN2CCN(Cc3ccc(O)cc3)CC2CCO)o1 (configuration not stated)	> 49.6 µg/mL
COc1ccc(NC(=O)CN2CCN(Cc3ccccc3)CC2)cc1	> 50.9 µg/mL
COc1ccccc1NC1=Nc2cccc3cccc1c23	4.9 µg/mL (≈ 17.9 µM)
CCCN1C(=O)c2ccc(C(=O)Nc3cc(C)ccc3O)cc2C1=O	0.9 µg/mL (≈ 2.66 µM)
O=C(COC(=O)C1COc2ccccc2O1)Nc1ccccc1OC(F)F (configuration not stated)	> 56.9 µg/mL
COc1cccc(OCCNS(=O)(=O)c2ccccc2[N+](=O)[O-])c1	47.2 µg/mL (≈ 134 µM)
CC1=Nc2ccc(C)cc2/C1=C/c1c(N)n2oc(C)cc2nc1=O	0.6 µg/mL (≈ 1.87 µM)
CCOC(=O)c1sc(Nc2ccc(Br)cc2)nc1C	1.2 µg/mL (≈ 3.52 µM)
Cc1cc(C)c(NC(=O)Cn2c([N+](=O)[O-])cnc2C)c(C)c1	4.1 µg/mL (≈ 13.6 µM)
COc1ccc(N2C(=O)CC(c3ccccc3)C2=O)cc1 (configuration not stated)	11.2 µg/mL (≈ 39.8 µM)
Cc1ccc(C(=O)Nc2c(C)cc(C)c3cccnc23)cc1	0.5 µg/mL (≈ 1.72 µM)
CCCCN(C(=O)c1c(C)noc1C)c1c(N)n(CCC)c(=O)[nH]c1=O	18.6 µg/mL (≈ 51.2 µM)
O=C(CSc1ncnc2sccc12)NC1CCS(=O)(=O)C1 (configuration not stated)	> 51.5 µg/mL
COc1cccc2cc(/C(=N/O)c3ccccc3)oc12	< 0.6 µg/mL
COc1ccc(C(=O)Nc2ccc3nc(C)sc3c2)cc1OC	3 µg/mL (≈ 9.14 µM)
COc1cc(/C=C2\SC(N)=NC2=O)cc(Br)c1O	1.7 µg/mL (≈ 5.16 µM)
CCOc1ccc(CNCCN2CCCC2)cc1.O=C(O)C(=O)O	28.2 µg/mL
O=c1[nH]c2cc3c(cc2cc1CN(Cc1cccnc1)C(=S)NCc1ccco1)OCCO3	< 0.2 µg/mL
CN(c1ccc(O)cc1)S(=O)(=O)c1ccc2ccccc2c1	> 47 µg/mL
CCCOc1ccc(/C=C2/C(=O)ON=C2C)cc1Cl	27.9 µg/mL (≈ 99.7 µM)
O=C(C(Cl)c1ccccc1)N1CCOCC1 (configuration not stated)	33.5 µg/mL (≈ 140 µM)
COCCNC(=S)N1CCN(c2nc3ccccc3s2)CC1	35.3 µg/mL (≈ 105 µM)
CCOC(=O)c1cc2c(nc1N)CCCC2	24.7 µg/mL (≈ 112 µM)
CCC(C)NCCOc1cc(C)cc(C)c1C.O=C(O)C(=O)O (configuration not stated)	35.1 µg/mL

Compound	solubility kinetic
COC(=O)c1ccc(COC(=O)CNC(=O)c2cccs2)cc1	> 50 µg/mL
Cc1cc(F)c(F)c(C(=O)N2C(C)CCCC2C)c1Cl (configuration not stated)	14.5 µg/mL (≈ 48.1 µM)
CNC(=O)CSc1nc2cccnc2n1-c1ccc(F)cc1	44.7 µg/mL (≈ 141 µM)
Cc1cccnc1NC(=O)CNC(=O)c1cccs1	> 41.3 µg/mL
COC(=O)c1ccccc1NC(=O)c1sc(Cl)nc1C	44 µg/mL (≈ 142 µM)
Cc1ccc(Sc2ncnc3onc(C)c23)c(C)c1	1.9 µg/mL (≈ 7 µM)
Cc1cc(NC(=O)Cc2cc(F)cc(F)c2)no1	7.5 µg/mL (≈ 29.7 µM)
COc1ccccc1CNC(=O)CS(=O)(=O)Cc1ccccc1	41.4 µg/mL (≈ 124 µM)
Cc1cccc(NC(=O)C2COc3ccccc3O2)c1 (configuration not stated)	7.8 µg/mL (≈ 29 µM)
O=C(Nc1cccnc1Cl)c1cccs1	> 35.8 µg/mL
O=C(/C=C/c1cccs1)N1CCN(c2ccc(F)cc2)CC1	3.1 µg/mL (≈ 9.8 µM)
CN(CC(=O)Nc1cccc(F)c1)C(=O)c1ccc(OCc2cn3ccccc3n2)cc1	9.2 µg/mL (≈ 21.3 µM)
CC1CCCCN1CCCNc1c(C=O)c(=O)[nH]c2ccccc12 (configuration not stated)	46.7 µg/mL (≈ 143 µM)
CC(=O)NCCc1nc2cc(NC(=O)c3ccc(Cl)cc3)ccc2n1C	35.7 µg/mL (≈ 96.3 µM)
CCOC(=O)c1cc(C)nc(S(C)(=O)=O)c1C#N	28.3 µg/mL (≈ 105 µM)
CSc1ncc(Sc2ccccc2)c(C(=O)O)n1	38.4 µg/mL (≈ 138 µM)
Nc1nonc1C(=O)NCCNc1ccc([N+](=O)[O-])cc1	3.8 µg/mL (≈ 13 µM)
Cc1ccc(OCC(=O)N2CCCCCCC2)cc1	> 39.2 µg/mL
Cc1cc(NC(=O)COc2ccc(C)c(C)c2)no1	0.7 µg/mL (≈ 2.69 µM)
O=C(COC(=O)C1CCC1)NCCc1ccc(Cl)cc1Cl	> 49.5 µg/mL
c1ccc(-c2ncc3ccccn23)cc1	19.1 µg/mL (≈ 98.3 µM)
CC(NC(=O)/C(C#N)=C/c1ccc(OCC(=O)O)cc1)c1ccccc1 (configuration not stated)	50.8 µg/mL (≈ 145 µM)
C=CCOc1ccc(C(=O)n2cc(C(=O)OC)c3ccccc32)cc1	< 0.7 µg/mL
Cc1[nH]c2c(Cl)cccc2c(=O)c1CN1CCCCCC1	> 45.7 µg/mL
O=C(COC(=O)CCc1ccc(S(=O)(=O)N2CCOCC2)cc1)Nc1ccccc1[N+](=O)[O-]	16.8 µg/mL (≈ 35.2 µM)

Compound	solubility kinetic
COc1ccc(CCNC(=O)c2ccccc2)cc1	> 38.3 µg/mL
COc1ccc(F)cc1S(=O)(=O)n1cnc2ccccc21	28.3 µg/mL (≈ 92.4 µM)
CCCn1c(COc2ccccc2)nc2ccccc21	37.4 µg/mL (≈ 140 µM)
CCN(Cc1ccccc1)C(=O)COC(=O)[C@@H]1CCCN1C(=O)c1cccs1	> 60.1 µg/mL
COc1cc(C(=O)Nc2cc(C)ccc2C)ccc1OCc1c(C)noc1C	7.1 µg/mL (≈ 18.7 µM)
COc1ccc(CNC(=O)CCC(=O)c2ccc(F)cc2)cc1OC	> 51.8 µg/mL
COc1ccc(CCn2cnc3c([nH]c4ccccc43)c2=O)cc1	< 0.2 µg/mL
O=c1c2ccccc2[se]n1-c1ccccc1	13.6 µg/mL and 6.6 µg/mL
CCOCCc1c(O)[nH]c(=S)[nH]c1=O	> 32.4 µg/mL
COCCCNc1ccc([N+](=O)[O-])cc1C(=O)Nc1cccc(C)n1	2.9 µg/mL (≈ 8.42 µM)
O=C(NCCCO)c1cc2ccccc2[nH]1	> 32.7 µg/mL
O=C(c1ccc([N+](=O)[O-])cc1)c1cc2ccc(O)cc2oc1=O	2 µg/mL (≈ 6.43 µM)
COc1ccc(NC(=O)C2CC(c3ccccc3O)=NO2)cc1OC (configuration not stated)	1.5 µg/mL (≈ 4.38 µM)
CC(c1ccccc1)N1CC(C(=O)Nc2nccs2)CC1=O (configuration not stated)	> 47.3 µg/mL
CC(=O)c1ccc(Nc2c(C)n(C)n(-c3ccccc3)c2=O)cc1	> 48.2 µg/mL
N#CCn1c(CN2CCCC2)nc2ccccc2c1=O	38.6 µg/mL (≈ 144 µM)
COC(=O)c1ccc(C(=O)OC)c(NC(=O)c2cccnc2)c1	2.3 µg/mL (≈ 7.32 µM)
Cc1cc2ncc(S(=O)(=O)C(C)(C)C)c(N)n2n1	> 40.2 µg/mL
O=C(CN1CCN(Cc2ccccc2Cl)C1=O)NCc1ccccn1	> 53.8 µg/mL
CCN1C(=O)c2cccc3c(Cl)ccc1c23	7 µg/mL (≈ 30.2 µM)
C/C(=N\O)C(C)(C)Nc1ccc(Br)cc1	> 40.7 µg/mL
COc1ccc(CN2CSC(=S)N(Cc3ccc(OC)cc3)C2)cc1	0.8 µg/mL (≈ 2.14 µM)
